# Data from publication PMC11249646, “Small-Molecule Disruptors of the Interaction between Calcium- and Integrin-Binding Protein 1 and Integrin αIIbβ3 as Novel Antiplatelet Agents” (ACS Pharmacology & Translational Science, 2024).
# pIC50: −log10 of the molar value.
# Molecular target: T1, CIB1 and αIIb interaction (GST-CIB1 : F-αIIb peptide) (Homo sapiens, UniProt Q99828)
# T1 construct: made in house; host or cells: BL-21 plus RIL cells (E. coli)
# T1 sequence (Q99828 1-191): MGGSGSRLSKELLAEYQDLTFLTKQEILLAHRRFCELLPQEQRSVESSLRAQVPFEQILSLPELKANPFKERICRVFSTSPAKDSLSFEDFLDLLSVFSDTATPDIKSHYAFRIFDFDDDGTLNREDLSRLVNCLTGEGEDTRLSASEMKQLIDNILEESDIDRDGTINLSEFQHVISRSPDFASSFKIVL
# Assay: FP assay, 384-well format (screen)
# Assay type: binding
# Parameters: 384-well SCREEN Efficacy (%): concentration or dose not given beside the values
# Settings: F-αIIb peptide
row,SMILES,384-well SCREEN Efficacy (%)
1,Cc1ccc(S(=O)(=O)Nc2cnccc2C(=O)Nc2nc(-c3ccc(Cl)cc3)cs2)cc1.O=C(O)C(F)(F)F [NCGC00318981-01],45
2,COc1cccc(-c2csc(NC(=O)c3ccncc3NS(=O)(=O)c3ccc(C)cc3)n2)c1 [NCGC00319006-02],52
3,Cc1ccc(-c2csc(NC(=O)c3ccncc3NS(=O)(=O)c3ccc(C)cc3)n2)cc1.O=C(O)C(F)(F)F [NCGC00319008-01],46
4,Cc1ccc(S(=O)(=O)Nc2cnccc2C(=O)Nc2nc(-c3cccc(C)c3)cs2)cc1.O=C(O)C(F)(F)F [NCGC00343524-02],42

# Same assay, conditions: F-αIIb peptide; YES/NO
row,SMILES,384-well SCREEN Confirm?
1,COc1cccc(-c2csc(NC(=O)c3ccncc3NS(=O)(=O)c3ccc(C)cc3)n2)c1 [NCGC00319006-02],YES
2,Cc1ccc(-c2csc(NC(=O)c3ccncc3NS(=O)(=O)c3ccc(C)cc3)n2)cc1.O=C(O)C(F)(F)F [NCGC00319008-01],YES
3,Cc1ccc(S(=O)(=O)Nc2cnccc2C(=O)Nc2nc(-c3cccc(C)c3)cs2)cc1.O=C(O)C(F)(F)F [NCGC00343524-02],YES

# Same assay, conditions: F-αIIb peptide; read-out: 384-well SCREEN IC50
row,SMILES,pIC50
1,Cc1ccc(S(=O)(=O)Nc2cnccc2C(=O)Nc2nc(-c3ccc(Cl)cc3)cs2)cc1.O=C(O)C(F)(F)F [NCGC00318981-01],< 3.92
2,COc1cccc(-c2csc(NC(=O)c3ccncc3NS(=O)(=O)c3ccc(C)cc3)n2)c1 [NCGC00319006-02],4.70
3,Cc1ccc(-c2csc(NC(=O)c3ccncc3NS(=O)(=O)c3ccc(C)cc3)n2)cc1.O=C(O)C(F)(F)F [NCGC00319008-01],4.97
4,Cc1ccc(S(=O)(=O)Nc2cnccc2C(=O)Nc2nc(-c3cccc(C)c3)cs2)cc1.O=C(O)C(F)(F)F [NCGC00343524-02],5.00

# Molecular target: T2, GST-CIB1 : F-scrambled peptide (Homo sapiens, UniProt Q99828)
# T2 construct: made in house; host or cells: BL-21 plus RIL cells (E. coli)
# T2 sequence (Q99828 1-191): T1 sequence (Q99828 1-191)
# Assay: FP scrambled-peptide counter screen, 384-well format
# Assay type: binding
# Settings: F-scrambled peptide
row,SMILES,384-well COUNTERSCREEN Efficacy (%)
1,Cc1ccc(S(=O)(=O)Nc2cnccc2C(=O)Nc2nc(-c3ccc(Cl)cc3)cs2)cc1.O=C(O)C(F)(F)F [NCGC00318981-01],60
2,COc1cccc(-c2csc(NC(=O)c3ccncc3NS(=O)(=O)c3ccc(C)cc3)n2)c1 [NCGC00319006-02],18
3,Cc1ccc(-c2csc(NC(=O)c3ccncc3NS(=O)(=O)c3ccc(C)cc3)n2)cc1.O=C(O)C(F)(F)F [NCGC00319008-01],70
4,Cc1ccc(S(=O)(=O)Nc2cnccc2C(=O)Nc2nc(-c3cccc(C)c3)cs2)cc1.O=C(O)C(F)(F)F [NCGC00343524-02],60

# Same assay, conditions: F-scrambled peptide; *: Curve in opposite direction
row,SMILES,384-well COUNTERSCREEN Confirm?
1,COc1cccc(-c2csc(NC(=O)c3ccncc3NS(=O)(=O)c3ccc(C)cc3)n2)c1 [NCGC00319006-02],YES
2,Cc1ccc(-c2csc(NC(=O)c3ccncc3NS(=O)(=O)c3ccc(C)cc3)n2)cc1.O=C(O)C(F)(F)F [NCGC00319008-01],YES*
3,Cc1ccc(S(=O)(=O)Nc2cnccc2C(=O)Nc2nc(-c3cccc(C)c3)cs2)cc1.O=C(O)C(F)(F)F [NCGC00343524-02],YES*

# Same assay, conditions: F-scrambled peptide; read-out: 384-well COUNTERSCREEN IC50
row,SMILES,pIC50
1,Cc1ccc(S(=O)(=O)Nc2cnccc2C(=O)Nc2nc(-c3ccc(Cl)cc3)cs2)cc1.O=C(O)C(F)(F)F [NCGC00318981-01],4.55
2,COc1cccc(-c2csc(NC(=O)c3ccncc3NS(=O)(=O)c3ccc(C)cc3)n2)c1 [NCGC00319006-02],< 3.92
3,Cc1ccc(-c2csc(NC(=O)c3ccncc3NS(=O)(=O)c3ccc(C)cc3)n2)cc1.O=C(O)C(F)(F)F [NCGC00319008-01],5.05
4,Cc1ccc(S(=O)(=O)Nc2cnccc2C(=O)Nc2nc(-c3cccc(C)c3)cs2)cc1.O=C(O)C(F)(F)F [NCGC00343524-02],4.85

# Molecular target: T3, CIB1 and αIIb interaction (CIB1-GST : F-αIIb peptide) (Homo sapiens, UniProt Q99828)
# T3 construct: made in house; host or cells: BL-21 plus RIL cells (E. coli)
# T3 sequence (Q99828 1-191): T1 sequence (Q99828 1-191)
# Assay: FP assay, 1536-well qHTS format (primary and confirmatory screen)
# Assay type: binding
# Settings: confirmatory screen, YES/NO call
row,SMILES,CONFIRMATORY SCREEN Confirm?
1,Cc1ccc(S(=O)(=O)Nc2cnccc2C(=O)Nc2nc(-c3ccc(Cl)cc3)cs2)cc1.O=C(O)C(F)(F)F [NCGC00318981-01],YES
2,COc1cccc(-c2csc(NC(=O)c3ccncc3NS(=O)(=O)c3ccc(C)cc3)n2)c1 [NCGC00319006-02],YES
3,Cc1ccc(-c2csc(NC(=O)c3ccncc3NS(=O)(=O)c3ccc(C)cc3)n2)cc1.O=C(O)C(F)(F)F [NCGC00319008-01],YES
4,Cc1ccc(S(=O)(=O)Nc2cnccc2C(=O)Nc2nc(-c3cccc(C)c3)cs2)cc1.O=C(O)C(F)(F)F [NCGC00343524-02],YES

# Same assay, conditions: confirmatory screen, qHTS curve class; negative sign = inhibitory curve
row,SMILES,CONFIRMATORY SCREEN Curve Class
1,Cc1ccc(S(=O)(=O)Nc2cnccc2C(=O)Nc2nc(-c3ccc(Cl)cc3)cs2)cc1.O=C(O)C(F)(F)F [NCGC00318981-01],-1.2
2,COc1cccc(-c2csc(NC(=O)c3ccncc3NS(=O)(=O)c3ccc(C)cc3)n2)c1 [NCGC00319006-02],-2.2
3,Cc1ccc(-c2csc(NC(=O)c3ccncc3NS(=O)(=O)c3ccc(C)cc3)n2)cc1.O=C(O)C(F)(F)F [NCGC00319008-01],-1.2
4,Cc1ccc(S(=O)(=O)Nc2cnccc2C(=O)Nc2nc(-c3cccc(C)c3)cs2)cc1.O=C(O)C(F)(F)F [NCGC00343524-02],-2.1

# Same assay, conditions: confirmatory screen; negative = inhibition
row,SMILES,CONFIRMATORY SCREEN Efficacy (%)
1,Cc1ccc(S(=O)(=O)Nc2cnccc2C(=O)Nc2nc(-c3ccc(Cl)cc3)cs2)cc1.O=C(O)C(F)(F)F [NCGC00318981-01],-69
2,COc1cccc(-c2csc(NC(=O)c3ccncc3NS(=O)(=O)c3ccc(C)cc3)n2)c1 [NCGC00319006-02],-89
3,Cc1ccc(-c2csc(NC(=O)c3ccncc3NS(=O)(=O)c3ccc(C)cc3)n2)cc1.O=C(O)C(F)(F)F [NCGC00319008-01],-50
4,Cc1ccc(S(=O)(=O)Nc2cnccc2C(=O)Nc2nc(-c3cccc(C)c3)cs2)cc1.O=C(O)C(F)(F)F [NCGC00343524-02],-128

# Same assay, conditions: confirmatory screen; read-out: CONFIRMATORY SCREEN IC50
row,SMILES,pIC50
1,Cc1ccc(S(=O)(=O)Nc2cnccc2C(=O)Nc2nc(-c3ccc(Cl)cc3)cs2)cc1.O=C(O)C(F)(F)F [NCGC00318981-01],4.55
2,COc1cccc(-c2csc(NC(=O)c3ccncc3NS(=O)(=O)c3ccc(C)cc3)n2)c1 [NCGC00319006-02],4.50
3,Cc1ccc(S(=O)(=O)Nc2cnccc2C(=O)Nc2nc(-c3cccc(C)c3)cs2)cc1.O=C(O)C(F)(F)F [NCGC00343524-02],4.70

# Same assay, conditions: qHTS FP screen hits, Table S2; negative = inhibition
row,SMILES,Efficacy (%)
1,Cc1ccc(-c2csc(NC(=O)c3ccncc3NS(=O)(=O)c3ccc(C)cc3)n2)cc1.O=C(O)C(F)(F)F [NCGC00319008-01],-45

# Same assay, conditions: qHTS FP screen hits, Table S2; one class per curve where COUNT > 1; negative sign = inhibitory curve
row,SMILES,Curve Class
1,Cc1ccc(-c2csc(NC(=O)c3ccncc3NS(=O)(=O)c3ccc(C)cc3)n2)cc1.O=C(O)C(F)(F)F [NCGC00319008-01],-1.2

# Same assay, conditions: qHTS FP screen hits, Table S2; read-out: IC50
row,SMILES,pIC50
1,Cc1ccc(-c2csc(NC(=O)c3ccncc3NS(=O)(=O)c3ccc(C)cc3)n2)cc1.O=C(O)C(F)(F)F [NCGC00319008-01],4.75

# Same assay, conditions: qHTS primary screen hits, Table S2; negative = inhibition
row,SMILES,Efficacy (%)
1,Cc1ccc(S(=O)(=O)Nc2cnccc2C(=O)Nc2nc(-c3ccc(Cl)cc3)cs2)cc1.O=C(O)C(F)(F)F [NCGC00318981-01],-35
2,Cc1ccc(S(=O)(=O)Nc2cnccc2C(=O)Nc2nc(-c3cccc(C)c3)cs2)cc1.O=C(O)C(F)(F)F [NCGC00343524-02],-40

# Same assay, conditions: qHTS primary screen hits, Table S2; negative sign = inhibitory curve; several classes where COUNT > 1
row,SMILES,Curve Class
1,Cc1ccc(S(=O)(=O)Nc2cnccc2C(=O)Nc2nc(-c3ccc(Cl)cc3)cs2)cc1.O=C(O)C(F)(F)F [NCGC00318981-01],-1.2
2,Cc1ccc(S(=O)(=O)Nc2cnccc2C(=O)Nc2nc(-c3cccc(C)c3)cs2)cc1.O=C(O)C(F)(F)F [NCGC00343524-02],-2.2

# Same assay, conditions: qHTS primary screen hits, Table S2; read-out: IC50
row,SMILES,pIC50
1,Cc1ccc(S(=O)(=O)Nc2cnccc2C(=O)Nc2nc(-c3ccc(Cl)cc3)cs2)cc1.O=C(O)C(F)(F)F [NCGC00318981-01],4.50
2,Cc1ccc(S(=O)(=O)Nc2cnccc2C(=O)Nc2nc(-c3cccc(C)c3)cs2)cc1.O=C(O)C(F)(F)F [NCGC00343524-02],4.45

# Molecular target: T2, GST-CIB1 : F-scrambled peptide
# Assay: FP scrambled-peptide counter screen, 1536-well format
# Assay type: binding
# Settings: scrambled-peptide counterscreen
row,SMILES,COUNTERSCREEN Efficacy (%)
1,Cc1ccc(S(=O)(=O)Nc2cnccc2C(=O)Nc2nc(-c3ccc(Cl)cc3)cs2)cc1.O=C(O)C(F)(F)F [NCGC00318981-01],53
2,COc1cccc(-c2csc(NC(=O)c3ccncc3NS(=O)(=O)c3ccc(C)cc3)n2)c1 [NCGC00319006-02],-41
3,Cc1ccc(-c2csc(NC(=O)c3ccncc3NS(=O)(=O)c3ccc(C)cc3)n2)cc1.O=C(O)C(F)(F)F [NCGC00319008-01],26
4,Cc1ccc(S(=O)(=O)Nc2cnccc2C(=O)Nc2nc(-c3cccc(C)c3)cs2)cc1.O=C(O)C(F)(F)F [NCGC00343524-02],14

# Same assay, conditions: scrambled-peptide counterscreen, YES/NO call
row,SMILES,COUNTERSCREEN Confirm?
1,Cc1ccc(S(=O)(=O)Nc2cnccc2C(=O)Nc2nc(-c3ccc(Cl)cc3)cs2)cc1.O=C(O)C(F)(F)F [NCGC00318981-01],YES
2,COc1cccc(-c2csc(NC(=O)c3ccncc3NS(=O)(=O)c3ccc(C)cc3)n2)c1 [NCGC00319006-02],YES
3,Cc1ccc(-c2csc(NC(=O)c3ccncc3NS(=O)(=O)c3ccc(C)cc3)n2)cc1.O=C(O)C(F)(F)F [NCGC00319008-01],YES
4,Cc1ccc(S(=O)(=O)Nc2cnccc2C(=O)Nc2nc(-c3cccc(C)c3)cs2)cc1.O=C(O)C(F)(F)F [NCGC00343524-02],YES

# Same assay, conditions: scrambled-peptide counterscreen, qHTS curve class
row,SMILES,COUNTERSCREEN Curve Class
1,Cc1ccc(S(=O)(=O)Nc2cnccc2C(=O)Nc2nc(-c3ccc(Cl)cc3)cs2)cc1.O=C(O)C(F)(F)F [NCGC00318981-01],3
2,COc1cccc(-c2csc(NC(=O)c3ccncc3NS(=O)(=O)c3ccc(C)cc3)n2)c1 [NCGC00319006-02],-3
3,Cc1ccc(-c2csc(NC(=O)c3ccncc3NS(=O)(=O)c3ccc(C)cc3)n2)cc1.O=C(O)C(F)(F)F [NCGC00319008-01],4
4,Cc1ccc(S(=O)(=O)Nc2cnccc2C(=O)Nc2nc(-c3cccc(C)c3)cs2)cc1.O=C(O)C(F)(F)F [NCGC00343524-02],4

# Same assay, conditions: scrambled-peptide counterscreen; read-out: COUNTERSCREEN IC50
row,SMILES,pIC50
1,Cc1ccc(S(=O)(=O)Nc2cnccc2C(=O)Nc2nc(-c3ccc(Cl)cc3)cs2)cc1.O=C(O)C(F)(F)F [NCGC00318981-01],4.05
2,COc1cccc(-c2csc(NC(=O)c3ccncc3NS(=O)(=O)c3ccc(C)cc3)n2)c1 [NCGC00319006-02],4.05
